According to patent publication US20090221539A1, “METHOD OF DETECTING AND REDUCING BOAR TAINT USING NUCLEAR RECEPTORS” (UNIVERSITY OF GUELPH, priority 2005, published 2009):
Read-outs that look alike come from different tables or passages of the source.

How the values were obtained:
UGT2B = details: boar hepatocytes, ligand 8 or 10 hours, vs DMSO
Source text: (§5) Boar hepatocytes treated with ligands for 8-10 hrs prior to RNA isolation and real time PCR analysis. B-actin was used as the housekeeping gene and DMSO (no hormone treatment) was used as the calibrator. For CYP2A6, CYP2E1, SULT1A1 and UGT2B the primer inefficiencies should not affect the resultant fold changes in this experiment since all hepatocyte treatments come from a single boar and analysis is compared to the no hormone DMSO control. This analysis should be valid since the calibrator is from the same pool of cells.
(§6) Primary boar hepatocytes were treated with seven different CAR ligands identified in objective 2 and 5, with DMSO used as the vehicle control. Primary cells were plated on 60 mm dishes and treated with ligand. The treatments were incubated for 8 or 10 hours and the RNA was extracted from cells in each treatment. Real Time PCR primers were designed for seven genes of interest CYP2A6, CYP2E1, 3β-HSD, 3α-HSD, SULT2A1, SULT1A1, UGT2B, CYP2B6 and pgCAR, with B-actin used as the housekeeping gene for ΔΔCT analysis.

SULT2A1 [1] = details: boar hepatocytes, ligand 8 or 10 hours, vs DMSO
Source text: as §5, §6

3β-HSD = details: boar hepatocytes, ligand 8 or 10 hours, vs DMSO
Source text: as §5, §6

3MI metabolism = 3MI metabolism assay: production of HMOI and 3MOI in primary pig hepatocytes after inducer treatment; assay type: cell-based; details: for 3MI metabolism: CITCO 1.0 μM
Experimental: (§1) Each data point represents results obtained from 3 separate experiments run in triplicate.
(§2) Hepatocytes were prepared by a modification of a collagenase perfusion method described previously (Sinclair et al., 2005). Briefly, one hepatic lobe was immediately catheterized by selecting the largest vessel at the cut end. Blood was then flushed from the liver by perfusion with 25 mL/min of medium containing 10 mM hydroxyethyl piperazine ethane (HEPES), 1 mM EGTA and HBSS (pH 7.4) delivered at 37° C. The lobe was then perfused for 5 minutes with the same medium without EGTA and then with William's E Media (pH 7.4) containing 10 mM HEPES and 0.7 mg/mL collagenase type 1 for 10 to 25 minutes until the hepatocytes appeared to be fully dissociated.
(§3) All remaining experimental procedures were carried out under sterile conditions. The lobe was gently minced with a scalpel to disassociate cells in attachment medium containing 10 mM HEPES, 10% (v/v) fetal bovine serum, 1% (v/v) penicillin-streptomycin and 50 Units/L insulin in William's E media (pH 7.4), at 4° C. Cells were filtered through gauze and centrifuged at 15×g for 3 minutes. The cell pellet was washed in attachment media and cell viability was determined by trypan blue exclusion. […] Hepatocytes were then plated on Primaria™ 60 mm tissue culture dishes (VWR International Ltd., Mississauga, ON) at a density of 2.25×10^6 cells in 3.0 mL attachment media, and kept in a incubator at 37° C. supplied with 95% air and 5% CO2. After 4 hours to allow for attachment of the cells, the medium was replaced with serum-free medium that contained 10 mM HEPES, 10 mM pyruvate, 0.35 mM proline, 1% (v/v) penicillin-streptomycin and 50 Units/L insulin in William's E media (pH 7.4) with treatments. For inducer experiments, hepatocytes were treated for 19 hours prior to the determination of P450 activities and 3MI metabolism.
To measure 3MI metabolism in primary cultured hepatocytes, cells were incubated with 500 μM 3MI for 6 hours, after which an equal volume of acetonitrile was added to stop the reaction. The production of metabolites was then determined by HPLC analysis as previously described (Terner et al., in press). Formation of metabolites was determined by interpolation of standard curves made from authentic standards HMOI and 3MOI run in duplicate.

SULT2A1 [2] = test: SULT2A1 activity in primary porcine Leydig cells after treatment with nuclear receptor ligands ([3H]DHEA to DHEAS conversion); assay type: cell-based, pig; details: primary Leydig cells of mature Yorkshire boars, 24 hours; CITCO 1 μM, TCPOBOP 250 nM, phenobarbital 2 mM, phenytoin 50 μM, rifampicin 10 μM, PCN 10 μM, dexamethasone 0.1 μM, lithocolic acid 100 μM; vs control
Experimental: FIG. 1: Effect of nuclear receptor ligands on SULT2A1 activity in porcine Leydig cells. Primary porcine Leydig cells were isolated from mature Yorkshire boars and the SULT2A1 activity was determined. Leydig cells were cultured in the presence of; CITCO (1 μM), TCPOBOP (250 nM), Phenobarbital (2 mM), Phenytoin (50 μM), Rifampicin (10 μM), PCN (10 μM), Dexamethasone (0.1 μM), Cholic Acid (100 μM), and Lithocolic Acid (100 μM) for 24 hours. Treatments are grouped according to the nuclear receptor affected: constitutive androstane receptor (CAR), pregnane X receptor (PXR), glucocorticoid receptor (GR) and farnesoid X receptor (FXR). Values are presented as means±SE of 3 independent experiments with significant differences indicated (*P<0.05).
Mature Yorkshire boars of 175±6 days obtained from the Arkell Swine Research Station at the University of Guelph, Guelph, ON were used for the isolation of Leydig cells. After slaughter, the testes were immediately removed and transported to the laboratory within five minutes. Testicular tissue was sliced into pieces of 1 cm^2×2-3 mm thickness and 100 g of tissue was incubated for 20 minutes in a shaking water bath at 37° C. with 1 mg/ml collagenase (type 1A), 50 μg/ml DNase and 50 μg/ml trypsin inhibitor in 250 ml of TC 199 Media containing 1 g/L bovine serum albumin and 0.1 g/L L-glutamine. Preparations of purified Leydig cells were obtained by layering the collagenase—dispersed testicular cells onto discontinuous Percoll gradients supplemented with HBSS. The preparations were then centrifuged at 1500×g for 15 minutes at 4° C. and the cells present at the 40-60% interface were collected as outlined previously (Raeside & Renaud 1983). Cell viability was determined by trypan blue exclusion. The typical viability of Leydig cells after this procedure was greater than 90%.
To further understand the molecular mechanisms that control SULT2A1 gene transcription, various nuclear receptor ligands were evaluated for their ability to induce SULT2A1 activity in Leydig cells. Aliquots of re-suspended Leydig cells (1×10^6 cells/ml) in TC 199 Media mixture were plated in 24 well plates. The Leydig cells were then treated with various nuclear receptor ligands as outlined in the figure legends in less than 0.5% DMSO vehicle and incubated at 37° C. in 95% air and 5% CO2 for 24 hours.
After the 24 h incubation period, the media was aspirated and approximately 10,000 cpm of [^3H] […] The cells were incubated for 4 h and the media was removed and immediately extracted by Sep-Pak C18 solid-phase chromatography, as described above. Sulfotransferase activity was assayed by measuring the conversion of [^3H] […] DHEAS (conjugate) fractions by liquid scintillation counting. […]

CYP2A6 = CYP2A6 activity (coumarin 7-hydroxylase, COH assay) in primary pig hepatocytes after inducer treatment; details: for CYP2A6 activity: isoproterenol 500 μM, CITCO 1.0 μM
Experimental: as §1, §2, §3
(§4) To determine the rate of p-nitrophenol (PNP) hydroxylase activity and coumarin 7-hydroxylase (COH) activity, hepatocytes were incubated with 500 μM PNP or 100 μM coumarin according to the procedures previously described (Terner et al, in press). Assays were validated to be linear with time and proportional to number of cells. Production of metabolites was determined in duplicate by interpolation of standard curves made from authentic standards p-nitrocatechol and 7-hydroxycoumarin.

CYP2E1 = CYP2E1 activity (PNP hydroxylase assay) in primary pig hepatocytes after inducer treatment; details: isoproterenol 500 μM, hormones and rifampicin 10 μM, CITCO 1.0 μM
Experimental: as §1, §2, §3, §4

pgCAR [3] = test: Dual luciferase reporter assay in HepG2 cells transiently transfected with pgCAR; assay type: cell-based, pig; details: for reporter gene expression (fold-change relative to DMSO vehicle): pgCAR, CYP2B6 response element firefly luciferase, hormones at 10 μM
Experimental: Dual Luciferase Reporter Assay: Pig, human ? mouse ? receptors were tested in a transient transfection assay against a panel of hormones and xenobiotics. Hormones and TCPOBOP were tested at 10 μM with the exception of CITCO at 1 μM. The effects of ligands are expressed as fold-change relative to vehicle (dimethylsulfoxide 1:2000) control for each receptor.
The dual luciferase reporter assay (Promega) was used as a screening tool to identify ligands (hormone and xenobiotic compounds) that regulate the nuclear receptor CAR. The dual luciferase assay consists of 3 plasmids. A pgCAR or hCAR or mCAR expression plasmid containing the full length wild type isoform is used together with a reporter construct, consisting of the CAR response gene promoter element from CYP2B6 regulating the expression of the firefly luciferase gene. […] The Promega Dual-Luciferase Reporter Assay System (Cat#E11960) was used to determine the hormones and xenobiotics that modulate the CAR responsive genes by measuring the amount light produced by the firefly luciferase gene construct.
The dual luciferase assay method uses HepG2 cells (that express RXR) plated at 50% confluence onto 96 well cell culture plates. The cells are transiently transfected after 1 day with pgCAR expression plasmid, reporter plasmid (containing the CAR response element) and the internal control plasmid, which are pooled treatments to ensure all samples receive the same amount of plasmids. On day two, control or ligand supplemented media are added to cells (ligands from FIG. 4 at 10 ug/ml in DMSO) for a total of n=15 for each ligand. On day four, the media is removed and cells are washed with PBS to remove detached cells and remaining media. The cell monolayer is then treated with Passive lysis buffer and the cell lysate is then transferred to a test tube for analysis. Luminometer readings are made on a Berthold Detection systems Sirius single tube luminometer with dual injectors. The test tube is loaded into the measurement chamber and the LARII luciferase reagent is injected into the cell lysate and a 10 second firefly luciferase relative light unit (RLU) measurement is recorded. The Stop & Glo reagent is then injected into the same tube and the Renella luciferase RLU is measured. The ratio of reporter to control luminescence is used to normalize transfection efficiencies between plates; the normalized values are then statistically analyzed by t-tests to determine how efficiently CAR activates the firefly luciferase reporter gene in response to ligand treatment.

pgCAR [4] = test: Dual luciferase reporter assay in primary boar hepatocytes transfected with pgCAR; assay type: cell-based, pig; details: primary boar hepatocytes with exogenous pgCAR expression plasmid
Experimental: FIG. 11. Dose response analysis of CITCO ligand treatment in primary boar hepatocytes. Unlike HepG2 cells, primary hepatocytes have very low basal luciferase expression allowing for the detection of significant fold changes above no hormone control at lower doses.
FIG. 12. Dose response analysis of Phenytoin ligand treatment in primary boar hepatocytes.
FIG. 13. Dual luciferase assay of selected ligand in boar hepatocytes. Selected activators and repressors of pgCAR in HepG2 cells were tested in boar hepatocytes. […] Only reporter gene activations and not repressions are detectable in this cell model.
Transfection experiments using the HepG2 cell line identified compounds that were able to alter pgCAR gene regulation. Experiments performed on primary mouse and human hepatocytes indicate that gene regulation has additional levels of complexity, and CAR is not constitutively active in vivo. This experiment uses a similar methodology as objective 2 except primary boar hepatocytes were used as the cell line. Hepatocytes were transfected with a reporter construct containing the CAR responsive element, an internal control Renilla luciferase construct, and pgCAR or an empty vector as control. Control experiments without pgCAR were conducted to determine if endogenous pgCAR in the hepatocytes could activate the reporter construct. […] The cascade of events leading to gene activation remains unclear.

[5] = adult male hepatocytes, isoproterenol 500 μM, estrone 10 μM, given as increase, FIG. 2 values as percent of control
[6] = 3-week old male pig hepatocytes, isoproterenol 500 μM, hormones and rifampicin 10 μM, given as increase, FIG. 2 values as percent of control
[7] = 3-week old male pig hepatocytes, given as increase, FIG. 2 values as percent of control
[8] = 3-week old male pig hepatocytes, hormones 10 μM, given as increase, FIG. 2 values as percent of control
[9] = adult male hepatocytes, hormones and rifampicin 10 μM

C[C@]12CCC(=O)C[C@@H]1CC[C@@H]1[C@@H]2CC[C@]2(C)[C@@H](O)CC[C@@H]12 [5α-DHT, 5α dihydrotestosterone]
UGT2B gene expression (UGT2B): significantly activated
SULT2A1 gene expression (SULT2A1 [1]): significantly activated
3β-HSD gene expression (3β-HSD): significantly activated

C[C@]12CC[C@@H]3c4ccc(O)cc4CC[C@H]3[C@@H]1CCC2=O [estrone]
HMOI production (3MI metabolism; [5]): 142±12%

Clc1cnc(Oc2ccc(Oc3ncc(Cl)cc3Cl)cc2)c(Cl)c1 [TCBOPOP, 1,4-bis-[2-(3,5-dichloropyridyl-oxy)]benzene; 3,3′5,5′-tetrachloro-1,4-bis(pyridyl-oxy)benzene]
SULT2A1 activity (SULT2A1 [2]): did not affect

CO[C@H]1/C=C/O[C@@]2(C)Oc3c(C)c(O)c4c(O)c(c(/C=N/N5CCN(C)CC5)c(O)c4c3C2=O)NC(=O)/C(C)=C\C=C\[C@H](C)[C@H](O)[C@@H](C)[C@@H](O)[C@@H](C)[C@H](OC(C)=O)[C@@H]1C [Rifampicin]
production of 3MOI (3MI metabolism; [6]): 128±10%
production of the 3MI metabolite HMOI (3MI metabolism; [6]): 151±14%
decrease in CYP2A6 activity (CYP2A6; male, pig, hepatocytes, 19 h, 10 μM, pH 7.4): 43±7%

CC(=O)[C@H]1[C@H](C#N)C[C@H]2[C@@H]3CC=C4C[C@@H](O)CC[C@]4(C)[C@H]3CC[C@@]21C [PCN, Pregnenolone 16α-carbonitrile]
SULT2A1 activity (SULT2A1 [2]): only rifampicin resulted in a significant increase

C[C@]12CC[C@H]3[C@@H](CCC4=CC(=O)CC[C@@]43C)[C@@H]1CC[C@@H]2O [testosterone]
production of 3MOI (3MI metabolism): did not affect
production of the 3MI metabolite HMOI (3MI metabolism): did not affect
CYP2E1 activity (CYP2E1; [7]): did not alter
CYP2E1 activity (CYP2E1; adult male hepatocytes): did not alter
CYP2A6 activity (CYP2A6; [8]): did not alter
CYP2A6 activity (CYP2A6; [9]): did not alter

C[C@]12CC[C@H](O)C[C@@H]1CC[C@@H]1[C@@H]2CC[C@]2(C)C=CC[C@@H]12 [5α-androsten-3β-ol]
reporter gene expression (fold-change relative to DMSO vehicle) (pgCAR [3]): significant repressions

C[C@@]12CCC[C@H]1[C@@H]1CC[C@H]3C[C@@H](O)CC[C@]3(C)[C@H]1CC2 [androstanol]
production of 3MOI (3MI metabolism; [6]): did not affect
production of the 3MI metabolite HMOI (3MI metabolism; [6]): did not affect
CYP2E1 activity (CYP2E1; [7]): did not alter
CYP2E1 activity (CYP2E1; adult male hepatocytes): did not alter
CYP2A6 activity (CYP2A6; [8]): did not alter
CYP2A6 activity (CYP2A6; [9]): did not alter

C[C@@]12C=CC[C@H]1[C@@H]1CC=C3C[C@@H](O)CC[C@]3(C)[C@H]1CC2 [5,16-androstadien-3β-ol]
reporter gene expression (fold-change relative to DMSO vehicle) (pgCAR [3]): significant repressions

Clc1ccc(-c2nc3sccn3c2C=NOCc2ccc(Cl)c(Cl)c2)cc1 [CITCO, 6-(4-chlorophenyl)imidazo[2,1-b][1,3]thiazole-5-carbaldehyde O-(3,4-dichlorobenzyl)oxime]
3MI metabolism (3MI metabolism; 3-week old male hepatocytes): did not increase CYP2E1 or CYP2A6 activity, or affect 3MI metabolism
3MI metabolism (3MI metabolism; adult male hepatocytes, rifampicin 10 μM): did not increase CYP2E1 or CYP2A6 activity, or affect 3MI metabolism
activation of the luciferase reporter construct (pgCAR [4]): activated the reporter construct
dose at which CITCO significantly activates the pgCAR receptor (pgCAR [3]; dose response 0.01-10.0): ≥ 0.5 µM
reporter gene expression (fold-change relative to DMSO vehicle) (pgCAR [3]): significant activation
SULT2A1 activity (SULT2A1 [2]): did not affect

O=C1NC(=O)C(c2ccccc2)(c2ccccc2)N1 [phenytoin]
activation of the luciferase reporter construct (pgCAR [4]): activated the reporter construct
SULT2A1 activity (SULT2A1 [2]): significant increase

C[C@]12CC[C@@H](O)C[C@@H]1CC[C@@H]1[C@@H]2CC[C@]2(C)C=CC[C@@H]12 [androstenol]
production of 3MOI (3MI metabolism; [6]): did not affect
production of the 3MI metabolite HMOI (3MI metabolism; [6]): did not affect

CC(C)NCC(O)c1ccc(O)c(O)c1 (stereo not shown) [isoproterenol]
production of 3MOI (3MI metabolism; [6]): unaffected
production of the 3MI metabolite HMOI (3MI metabolism; [6]): 150±13%
3MOI production (3MI metabolism; adult male hepatocytes, isoproterenol 500 μM, estrone 10 μM): did not alter
HMOI production (3MI metabolism; [5]): 139±12%
